Experimental data as given in BindingDB's records for patent US20240335427 (Dana-Farber Cancer Institute, 2024).

Target: Josephin-1 (Homo sapiens, UniProt Q15040)
Excerpt: Human JOSD1 protein was purified according to standard protocols.

- IC50: 95 nM
SMILES: N#CN1CC[C@@H](C(=O)Nc2nc3ccc(-c4ccc5[nH]ncc5c4)cc3s2)C1 [US20240335427, Compound 7]
